Results from article PMC4838304, “Effective Design of Multifunctional Peptides by Combining Compatible Functions” (PLoS Computational Biology, 2016).
Where two headings read alike, the source gives them in different places.

Columns and labels:
[1] = test system: Escherichia coli strain DH5α; assay: microbe, parasite or virus in culture; format: cell-based
Excerpt: If CPP, DNA binding and AMP activities are compatible, the designed peptides should inhibit bacterial growth. Here we exposed E. coli DH5α cells to varying low concentrations of the designed peptides as well as several controls (see Fig 4). […] To test whether α-factor was important for AMP activity we also tested pure α-factor, pure NLS, the optimized NLS fitting CPP rules (NLS-CE) and the Iztli-1 peptide, a previously reported peptide with an embedded α-factor specifically designed to have antibacterial activity. […] A linear trend could be observed between concentration and growth inhibition (regression lines with standard deviations shown in Fig 6). […] The minimal inhibitory concentrations for E. coli are reported in Table 2 (growth curves are shown in S4 Fig).
Fig 6 Antibacterial activity. DH5α E. coli cells were treated with varying concentrations of peptides ranging from 0 to 16 μM for the peptides and 0 to 48 μM for Ampicillin. The relative area under the growth curve measured the growth inhibition. Measurements from four repetitions distributed onto two different plates are shown as dots colored by their respective concentrations. Linear regressions are shown as blue lines and their respective standard errors as blue shades. Dashed lines indicate the mean area under the curve for the H2O controls and its 50% value respectively. Minimal inhibitory concentrations to achieve 50% or 100% of cell growth inhibition are reported.
Escherichia coli strain DH5α was grown for 12 hours to mid-log phase and diluted to 8·10^5 cells/ml by using the reference OD obtained by absorption spectroscopy. Each sample 100μL culture was treated with 50μL solution containing the respective peptide in the desired concentration or water in the case of the controls. Growth curves were measured on two 96 well half area plates with two replicates each followed for 24h using a plate reader (Synergy, USA). In order to minimize plate-specific effects due to variations in loading time or initial cell numbers, different plates measurements were normalized by the time-point where the water control samples reached their half-maximal OD before combining. The respective minimum from each growth curve was subtracted from the normalized data from individual or combined plates. Areas under the curves were obtained by applying a linear interpolation to the OD curves, which was then integrated exactly. Growth rates were obtained by log-transforming the growth curves, identifying the exponential phase by the linear parts in that log-transformation (OD600 between 0.05 and 0.5) and performing a linear regression in the exponential phase with the slope denoting the respective growth rate. All mentioned methodology was implemented in R (www.r-project.org) and is available as open source at http://github.com/cdiener/dcf.
Using the slope of the linear regressions determined in these experiments, we estimated the minimal inhibitory concentration (MIC) for E. coli of our 3 CPP designed peptides (α-NLS-C, NLS-α-CE and chimera) and tested it experimentally.

[2] = test system: pheromone-signaling pathway (Fus1-eGFP) in MATa cells; assay: Pheromone signaling assay, Fus1-GFP expression and shmoo phenotype; format: cell-based, Saccharomyces cerevisiae; conditions: BY4741 fus1::eGFP, 60 μM peptide (20 μM for α-factor), 3h
Protocol: Finally, the activity of the α-factor embedded in the peptides was evaluated by activation of the pheromone-signaling pathway in MATa cells of S. cerevisiae. We monitored the pheromone signaling activity by following the expression of the GFP-labeled Fus1 protein. Fus1 is among the proteins with the highest pheromone-induced expression and is required for cell-cell fusion during mating. […] The observed phenotype was consistent with the activation of signaling showing a mating protrusion, often called “shmoo” as well as the absence of budding due to inhibition of the Cdc28 cyclin [35, 36].
Fig 5 Pheromone activity. The pheromone signaling pathway is confirmed by the expression of Fus1-GFP, characteristic “shmoo” phenotype and the absence of budding observed in differential interference contrast (DIC) bright field. Concentrations were 20 μM for α-factor and 60 μM for all other peptides. The negative control was water without any peptide.
Pheromone signaling induction in Saccharomyces cerevisiae was measured by induction of eGFP fluorescence in a BY4741 strain containing the Fus1-eGFP construct in place of the wild type Fus1 (MATa his3Δ1 leu2Δ0 met15Δ0 ura3Δ0 fus1::eGFP HIS3MX6, obtained from the yeast GFP collection). The BY4741 fus1::eGFP strain was grown overnight in YPD to mid-log phase and diluted to 10^6 cells/mL. Samples were treated with the respective peptide concentrations and incubated for 3h before mixing 1:1 with low-diffusivity agarose suspended on a covered glass slide. Images were taken with an Olympus FV10 confocal microscope using a 60x objective with […]. Images were analyzed using Fiji (www.fiji.sc). The only modifications applied to the images were separation of the bright field and GFP channels, adjustment of brightness and contrast to 50% and addition of scale bars.

[3] = test system: pGREG546 plasmid; assay: Electrophoretic mobility shift assay (EMSA), DNA retention; format: binding; conditions: for DNA binding in EMSA, in words: 1μg pGREG546, DNA to peptide charge ratio 1:1 or 1:4, 30 minutes
Excerpt: To test the ability of the designed peptides to bind nucleic acids, we evaluated by electrophoretic mobility shift assays (EMSAs) the retention of DNA by the designed peptides. Each EMSA was executed with peptide quantities that were multiples of the DNA to peptide charge ratio. A DNA to peptide charge ratio of 1:1 is represented by the number of positive charges of the peptide required to neutralize the negative charges of the DNA backbone. Retention in the gel is an indirect measure of the fraction of positive charges within the peptide participating in binding the DNA molecules. All EMSA assays were performed using the yeast plasmid pGREG546. As negative control, pGREG546 without any peptide was used, and as positive control the known DNA-binding cell penetrating peptide MPG was used. […] However, retention in the gel was observed when NLS was joined to any larger peptide fragment.
Fig 4 DNA binding. (A) Quantification of DNA retention obtained from three independent electrophoretic mobility shift assays. All measurements are shown and horizontal bars denote the sample mean. Representative gels are shown in (B-C).
1μg of pGREG546 plasmid was pre-incubated with the required quantity of each peptide to result in a 1:1 or 1:4 peptide charge to DNA charge ratio. Samples were incubated for 30 minutes and loaded on a 1% Agarose gel in SB buffer. DNA affinity was quantified by measuring the mean pixel intensity of the DNA bands with Fiji (http://fiji.sc) and normalizing to the intensity range between an empty spot on the gel and the intensity of the pGREG546 plasmid without any added peptide. Analysis scripts for the EMSA experiments as well as the raw data can be found with the distributed source code at http://bis.ifc.unam.mx/software/dcf.

[4] = test system: Escherichia coli strain DH5α; format: cell-based; conditions: 12 h
[5] = Circular dichroism, secondary structure content (CONTIN/LL); format: physicochemical; conditions: for Secondary Structure Random coil / Secondary Structure α-Helix / Secondary Structure β-Sheet: 0.3mg in 1mL, 20°C, far-UV CD, CONTIN/LL
Protocol: We studied the structural properties of the peptides in vitro, using circular dichroism (see Materials and Methods). The far-UV CD spectra for NLS-CE, NLS-α and NLS-α-CE in water matched the characteristics of a random coil conformation.
Circular dichroism spectra were recorded on a ChirascanTM CD Spectrometer (Applied Photophysics, UK) equipped with a peltier temperature controller. 0.3mg of each peptide was dissolved in 1mL of water or 50% aqueous trifluoroethanol and placed in quartz cuvettes of 0.1cm path length. Far-UV CD spectra were collected from 185 to 250 nm at 20°C. Spectra were averaged over 5 scans and the averaged blank spectra of solvents were subtracted. Ellipticity is reported as mean residue molar ellipticity and recorded in terms of molar elipticity [θ] (deg cm^2 dmol^−1). CONTIN/LL within the CDPro analysis software program was used to estimate the secondary structure content of the peptides.

[6] = E. coli DH5α, peptides 0 to 16 μM

Compound: CC1(C)S[C@@H]2[C@H](NC(=O)[C@H](N)c3ccccc3)C(=O)N2[C@H]1C(=O)O [Ampicillin, reference compound]
- MIC ([1]; Escherichia coli, E. coli DH5α, growth curves followed for 24h, relative area under the growth curve, read-out: E. coli MIC for 50% inhibition): > 48 µM
- MIC ([1]; Escherichia coli, E. coli DH5α, predicted from linear regression and tested experimentally, read-out: E. coli MIC for 100% inhibition): 100 µM

Compound: CSCC[C@H](NC(=O)[C@@H]1CCCN1C(=O)[C@H](CCC(N)=O)NC(=O)CNC(=O)[C@@H]1CCCN1C(=O)[C@H](CCCCN)NC(=O)[C@H](CC(C)C)NC(=O)[C@H](CCC(N)=O)NC(=O)[C@H](CC(C)C)NC(=O)[C@H](Cc1c[nH]c2ccccc12)NC(=O)[C@H](Cc1c[nH]cn1)NC(=O)[C@H](Cc1c[nH]c2ccccc12)NC(=O)[C@H](Cc1ccccc1)NC(=O)[C@H](CCCNC(=N)N)NC(=O)[C@H](CC(N)=O)NC(=O)[C@H](CC(C)C)NC(=O)[C@H](Cc1ccccc1)NC(=O)[C@@H](N)CCCCN)C(=O)N[C@@H](Cc1ccc(O)cc1)C(=O)O [Iztli-1, reference compound]
- pheromone signaling activity (Fus1-GFP expression, phenotype) [2]: same phenotype
- DNA binding in EMSA, in words [3]: increased its affinity for DNA
- E. coli MIC for 100% inhibition [4]: 20 µM
- MIC ([1]; DH5α, 24 h, read-out: E. coli MIC for 50% inhibition): 8 µM
- antibacterial activity against E. coli, in words [1, 6]: very similar E. coli growth inhibition as NLS-α

Compound: PKKKRKVWHWLQLKPGQPMY [NLS-α]
- pheromone signaling activity (Fus1-GFP expression, phenotype) [2]: significant induction of expression of Fus1-GFP
- Secondary Structure Random coil ([5]; 50% TFE): 59%
- Secondary Structure α-Helix ([5]; 50% TFE): 6%
- Secondary Structure β-Sheet ([5]; 50% TFE): 35%
- aggregation suggested by decrease in negative ellipticity ([5]; 50% TFE, CD spectra): TFE promoted aggregation of the peptides
- Secondary Structure Random coil ([5]; water): 67%
- Secondary Structure α-Helix ([5]; water): 5%
- Secondary Structure β-Sheet ([5]; water): 28%
- concentration showing partial growth inhibition [1, 6]: 4 µM

Compound: QPKKKRKV [NLS, reference compound]
- DNA binding in EMSA, in words [3]: not capable of binding DNA in low concentrations
- antibacterial activity against E. coli, in words [1, 6]: no antibacterial activity

Compound: WHWLQLKPGQPMY [α-factor, mating pheromone α-factor from S. cerevisiae, purchased from Sigma-Aldrich]
- DNA binding in EMSA, in words [3]: weak ability to bind DNA
- DNA retention ([3]; 1:4 DNA to peptide charge ratio, 1μg pGREG546, 30 minutes, 1% agarose gel): around 60%
- antibacterial activity against E. coli, in words [1, 6]: no antibacterial activity

Compound: WRFVWMNPKKKRKV [NLS-CE, optimized NLS fitting CPP rules]
- DNA binding in EMSA, in words [3]: effective DNA-binding activity
- Secondary Structure Random coil ([5]; 50% TFE): 61%
- Secondary Structure α-Helix ([5]; 50% TFE): 5%
- Secondary Structure β-Sheet ([5]; 50% TFE): 34%
- Secondary Structure Random coil ([5]; water): 64%
- Secondary Structure α-Helix ([5]; water): 6%
- Secondary Structure β-Sheet ([5]; water): 31%
- antibacterial activity against E. coli, in words [1, 6]: partial growth inhibition
